Source: patent US9833497B2, “Human originated EGF domain proteins and use of the same” (CHENGDU SOURCEBIO LIMITED-LIABILITY COMPANY, priority 2013, dated 2017)

Experiments:
Type in all cases: cell-based
[1] = tested on: E. coli DH5α; test: Antibacterial activity: MIC and growth curve against E. coli DH5α in 96-well plate; details: minimal inhibitory concentration against E. coli DH5α; 96-well plate, 5×10^5 CFU/mL, 37° C., judged after 8 h
Procedure, shortened: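 Log-phase bacteria (OD600 ~0.5) resuspended in LB at 5×10^5 CFU/mL, exposed to recombinant protein at 50, 25, 12.5 μg/mL final in triplicate, 37 °C shaking at 175 rpm. OD600 read every 30 min; MIC is lowest concentration showing no growth.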

[2] = tested on: E. coli BL21; test: MIC against Gram-negative bacteria: E. coli BL21; details: 5×10^5 CFU/mL
Procedure, shortened: (§1)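 Purified recombinant human EGF domain proteins are tested by broth dilution in LB against a 5×10^5 CFU/mL inoculum, with two-fold serial dilutions run in triplicate. Plates are incubated at 37° C with shaking, and the MIC is read as the lowest protein concentration without growth.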

[3] = tested on: Pseudomonas aeruginosa; test: MIC against Gram-negative bacteria: Pseudomonas aeruginosa; details: 5×10^5 CFU/mL
Procedure, shortened: as §1

[4] = tested on: Klebsiella pneumonia; test: MIC against Gram-negative bacteria: Klebsiella pneumonia; details: 5×10^5 CFU/mL
Procedure, shortened: as §1

[5] = tested on: Enterobacter cloacae; test: MIC against Gram-negative bacteria: Enterobacter cloacae; details: 5×10^5 CFU/mL
Procedure, shortened: as §1

[6] = tested on: Aeromonas hydrophila; test: MIC against Gram-negative bacteria: Aeromonas hydrophila; details: 5×10^5 CFU/mL
Procedure, shortened: as §1

[7] = tested on: Citrobacter diversus; test: MIC against Gram-negative bacteria: Citrobacter diversus; details: 5×10^5 CFU/mL
Procedure, shortened: as §1

[8] = tested on: Moraxella catarrhalis; test: MIC against Gram-negative bacteria: Moraxella catarrhalis; details: 5×10^5 CFU/mL
Procedure, shortened: as §1

[9] = tested on: Proteus mirabilis; test: MIC against Gram-negative bacteria: Proteus mirabilis; details: 5×10^5 CFU/mL
Procedure, shortened: as §1

[10] = tested on: Proteus vulgaris; test: MIC against Gram-negative bacteria: Proteus vulgaris; details: 5×10^5 CFU/mL
Procedure, shortened: as §1

[11] = tested on: Serratia marcescens; test: MIC against Gram-negative bacteria: Serratia marcescens; details: 5×10^5 CFU/mL
Procedure, shortened: as §1

[12] = P. aeruginosa, 10 h cultivation at 37° C.
[13] = K. pneumonia, 10 h cultivation at 37° C.
[14] = E. cloacae, 10 h cultivation at 37° C.
[15] = A. hydrophila, 10 h cultivation at 37° C.
[16] = C. diversus, 10 h cultivation at 37° C.
[17] = M. catarrhalis, 10 h cultivation at 37° C.
[18] = P. mirabilis, 10 h cultivation at 37° C.
[19] = P. vulgaris, 10 h cultivation at 37° C.
[20] = S. marcescens, 10 h cultivation at 37° C.

Substance | MIC [1] | MIC (μg/mL) E. coli BL21 ([2]; 10 h cultivation at 37° C.) | MIC (μg/mL) P. aeruginosa [3, 12] | MIC (μg/mL) K. pneumonia [4, 13] | MIC (μg/mL) E. cloacae [5, 14] | MIC (μg/mL) A. hydrophila [6, 15] | MIC (μg/mL) C. diversus [7, 16] | MIC (μg/mL) M. catarrhalis [8, 17] | MIC (μg/mL) P. mirabilis [9, 18] | MIC (μg/mL) P. vulgaris [10, 19] | MIC (μg/mL) S. marcescens [11, 20] | other results
PRT516 (CNCSGLGSKNEDPCFGPCICKENVEGGDCSRCKSGFFNLQEDNWKGCDE; listed as Homo sapiens) | 12.5 µg/mL | – | – | – | – | – | – | – | – | – | – | MIC against E. coli BL21 ([2]; 96-well plate, 37° C., 10 h): 50 µg/mL; MIC against P. aeruginosa ([3]; 96-well plate, 37° C., 10 h): 12.5 µg/mL; MIC against K. pneumonia ([4]; 96-well plate, 37° C., 10 h): 50 µg/mL; MIC against E. cloacae ([5]; 96-well plate, 37° C., 10 h): 12.5 µg/mL; MIC against A. hydrophila ([6]; 96-well plate, 37° C., 10 h): 25 µg/mL; MIC against C. diversus ([7]; 96-well plate, 37° C., 10 h): 50 µg/mL; MIC against M. catarrhalis ([8]; 96-well plate, 37° C., 10 h): 25 µg/mL; MIC against P. mirabilis ([9]; 96-well plate, 37° C., 10 h): 12.5 µg/mL; MIC against P. vulgaris ([10]; 96-well plate, 37° C., 10 h): 25 µg/mL; MIC against S. marcescens ([11]; 96-well plate, 37° C., 10 h): 50 µg/mL
PRT246 (DINECTMDSHTCSHHANCFNTQGSFKCKCKQGYKGNGLRCS; listed as Homo sapiens) | 12.5 µg/mL | 12.5 µg/mL | 12.5 µg/mL | 12.5 µg/mL | 12.5 µg/mL | 12.5 µg/mL | 12.5 µg/mL | 25 µg/mL | 12.5 µg/mL | 25 µg/mL | 12.5 µg/mL | –
PRT734 (NNNPCLENNGGCSHLCFALPGLHTPKCDCAFGTLQSDGKNCA; listed as Homo sapiens) | 50 µg/mL | – | – | – | – | – | – | – | – | – | – | MIC E. coli BL21 ([2]; 96-well plate, 37° C., 10 h): 12.5 µg/mL; MIC P. aeruginosa ([3]; 96-well plate, 37° C., 10 h): 25 µg/mL; MIC K. pneumonia ([4]; 96-well plate, 37° C., 10 h): 50 µg/mL; MIC E. cloacae ([5]; 96-well plate, 37° C., 10 h): 12.5 µg/mL; MIC A. hydrophila ([6]; 96-well plate, 37° C., 10 h): 50 µg/mL; MIC C. diversus ([7]; 96-well plate, 37° C., 10 h): 25 µg/mL; MIC M. catarrhalis ([8]; 96-well plate, 37° C., 10 h): 12.5 µg/mL; MIC P. mirabilis ([9]; 96-well plate, 37° C., 10 h): 25 µg/mL; MIC P. vulgaris ([10]; 96-well plate, 37° C., 10 h): 25 µg/mL; MIC S. marcescens ([11]; 96-well plate, 37° C., 10 h): 50 µg/mL
PRT155 (APGPCAAQPCRNGGVCTSRPEPDPQHPAPAGEPGYSCTCPAGISGANCQ; listed as Homo sapiens) | 12.5 µg/mL | 25 µg/mL | 12.5 µg/mL | 25 µg/mL | 12.5 µg/mL | 25 µg/mL | 12.5 µg/mL | 25 µg/mL | 12.5 µg/mL | 25 µg/mL | 12.5 µg/mL | –
PRT162 (LIDFCALSPCAHGTCRSVGTSYKCLCDPGYHGLYCE; listed as Homo sapiens) | 12.5 µg/mL | 25 µg/mL | 12.5 µg/mL | 25 µg/mL | 12.5 µg/mL | 25 µg/mL | 12.5 µg/mL | 12.5 µg/mL | 100 µg/mL | 12.5 µg/mL | 25 µg/mL | –
PRT199 (CLPETCNMKGICNNKHHCHCGYGWSPPYCQ; listed as Homo sapiens) | 25 µg/mL | 12.5 µg/mL | 12.5 µg/mL | 12.5 µg/mL | 12.5 µg/mL | 12.5 µg/mL | 12.5 µg/mL | 12.5 µg/mL | 12.5 µg/mL | 12.5 µg/mL | 25 µg/mL | –
PRT69 (RRNFCDGRRCQNGGTCVNRWNMYLCECPLRFGGKNCE; listed as Homo sapiens) | 12.5 µg/mL | – | – | – | – | – | – | – | – | – | – | MIC (μg/mL) E. coli BL21 ([2]; 96-well plate, 37° C., 10 h): 12.5 µg/mL; MIC (μg/mL) P. aeruginosa ([3]; Pseudomonas aeruginosa, 96-well plate, 37° C., 10 h): 25 µg/mL; MIC (μg/mL) K. pneumonia ([4]; Klebsiella pneumonia, 96-well plate, 37° C., 10 h): 12.5 µg/mL; MIC (μg/mL) E. cloacae ([5]; Enterobacter cloacae, 96-well plate, 37° C., 10 h): 25 µg/mL; MIC (μg/mL) A. hydrophila ([6]; Aeromonas hydrophila, 96-well plate, 37° C., 10 h): 12.5 µg/mL; MIC (μg/mL) C. diversus ([7]; Citrobacter diversus, 96-well plate, 37° C., 10 h): 25 µg/mL; MIC (μg/mL) M. catarrhalis ([8]; Moraxella catarrhalis, 96-well plate, 37° C., 10 h): 12.5 µg/mL; MIC (μg/mL) P. mirabilis ([9]; Proteus mirabilis, 96-well plate, 37° C., 10 h): 12.5 µg/mL; MIC (μg/mL) P. vulgaris ([10]; Proteus vulgaris, 96-well plate, 37° C., 10 h): 12.5 µg/mL; MIC (μg/mL) S. marcescens ([11]; Serratia marcescens, 96-well plate, 37° C., 10 h): 12.5 µg/mL
